The values below come from publication PMC11125126, “Synthesis, Characterisation, and In Vitro Evaluation of Biocompatibility, Antibacterial and Antitumor Activity of Imidazolium Ionic Liquids” (Pharmaceutics, 2024).

Like-named read-outs stand apart in the source and are kept apart here.

For one series, the system named is Escherichia coli. In words: MIC/MBC by broth dilution, pure ILs. The settings on record: 24 h; for MBC: read-out: MBC; for MIC: read-out: MIC. The format is cell-based. The source says: (§1) Within the Di3A (Dipartimento di Agricoltura, Alimentazione e Ambiente, University of Catania, Italy) microbial collection, two Gram-negative strains (Escherichia coli and Pseudomonas fluorescens) and one Gram-positive strain (Listeria monocytogenes) were studied in order to define the potential efficacy of ionic liquids in relation to the different structure of the bacterial cell wall.
(§2) For the pure ILs, the minimal inhibitory concentration (MIC) and minimal bactericidal concentration (MBC) were determined in Nutrient Broth (NB, Oxoid, Basingstoke, UK) medium by broth dilution method, according to the Clinical and Laboratory Standards Institute (CLSI).
(§3) All the bacterial strains were individually grown for 24 h at 35 or 27 °C for P. fluorescens, with shaking. After the incubation period, the cells were collected by centrifugation and re-suspended in sterile NB to obtain a stock culture of 10^9 CFU/mL.
(§4) Tubes containing 5 mL of NB with decreasing concentrations of ILs (1000, 500, 250, 125, 50, 25, 12.5, 5 and 0 µg/mL) were inoculated with each bacterial stock culture at a final concentration of 10^6 CFU/mL.
(§5) Tubes were incubated at 35 or 27 °C in an orbital shaker and evaluated for the viable count of E. coli, P. fluorescens, and L. monocytogenes after 24 h by spread-plating 100 µL of each suspension on Nutrient Agar (NA, Oxoid, Basingstoke, UK) incubated for 24–48 h at 35 or 27 °C.
(§6) In this study, MIC and MBC are expressed in both µg/mL and µM to make the comparison with the literature data easy. Each experiment was performed in triplicate.
A general note: In broth dilution the organism is exposed to a series of concentrations in liquid medium.

In the next series the test system is Listeria monocytogenes. The series is described as follows: MIC/MBC by broth dilution, pure ILs. The format is cell-based. The conditions noted are these: 24 h; for MBC: read-out: MBC; for MIC: read-out: MIC.
Source text: as §1, §2, §3, §4, §5, §6

For a further series, the system named is Pseudomonas fluorescens. The series is described as follows: MIC/MBC by broth dilution, pure ILs. The format is cell-based. The conditions noted are these: 24 h; for MBC: read-out: MBC; for MIC: read-out: MIC.
Source text: as §1, §2
All the bacterial strains were individually grown for 24 h at 35 or 27 °C for P. fluorescens, with shaking. After the incubation period, the cells were collected by centrifugation and re-suspended in sterile NB to obtain a stock culture of 10^9 CFU/mL. […]
as §5, §6

Series [1] deals with HDF cells. The series is described as follows: Direct cytotoxicity test of IL powders, Alamar blue assay. The settings on record: Homo sapiens, 24 h of incubation. The format is cell-based, human. The procedure:
(§7) Cytotoxicity studies on IL powders were carried out using human dermal fibroblast (HDF) cells (Sigma-Aldrich) and a human breast cancer cell line (MCF7). In addition, ILs loaded in PVC polymer substrates were tested for their cytocompatibility and adhesion properties on the HDF. HDF cells were cultured in 75 cm^2 cell culture flask in Dulbecco’s Modified Eagle’s Medium (DMEM) supplemented with 20% Foetal Bovine Serum (FBS), 1% non-essential amino acid (NEAA), antibiotic solution (streptomycin 100 µg/mL and penicillin 100 U/mL, Sigma Aldrich) and 2 mM L-glutamine. MCF7 cells were grown in DMEM with 10% FBS and the same antibiotics as mentioned above. The cells were maintained in a culture at 37 °C, with 5% CO2 and 95% humidity to achieve a confluent layer. Control cells were cultured in a complete medium without any compounds in tissue culture plates. Before biological testing, the samples were sterilised using a UV light for 2 h.
(§8) A direct cytotoxicity test was used to assess the in vitro cytotoxicity of IL powders. IL powders with different alkyl chains were dissolved in DMEM media to obtain solutions at various concentrations (0.5–1–5 and 10 µg/mL) to determine the best formulation.
(§9) After 24 h of incubation of IL solutions (200 µL) with seeded cells under specific environmental conditions (T = 37 °C, HR = 95%, CO2 = 5%), cell viability was tested using the Alamar blue assay (AbD Serotec, Milan, Italy) following the manufacturer’s instructions.
(§10) In summary, each well received a 200 µL aliquot of Alamar Blue^TM diluted 1:10 in phenol red-free medium and was incubated for 4 h at 37 °C, 5% CO2. Following this, 100 µL of the solution was transferred to a 96-well plate for colorimetric analysis. Wells with no cells were included to account for any background interference from the redox indicator. Optical density was immediately measured using a spectrophotometer (Victor X3, Perkin Elmer, Waltham, MA, USA) at 560 and 595 nm wavelengths. The results were presented as a percentage of cell viability compared to that of the control (cells grown on tissue culture plates).
(§11) Here, the antitumor activity and cytotoxicity of the synthetised imidazolium-based ionic liquids have been determined for breast cancer cells (MCF-7) and healthy human fibroblast (HDF) cells. […] Table 5 reports the IC50 values in µg/mL and µM to make their comparison with the literature data easy.
(The colour change of resazurin is a common sign of viable cells or microbes.)

A further series has as its system MCF7 cancer cells. Described as above. The format is cell-based, human. The conditions noted are these: Homo sapiens, 24 h of incubation. The procedure: as §7, §8, §9, §10, §11
Series [2] relates to HDF cells. The series is described as follows: Indirect cytotoxic test (ISO 10993-5 elution) of IL-loaded PVC, Alamar blue. The format is cell-based, human. The conditions noted are these: IL loaded into the PVC matrix at 0.5 and 1 wt%; 24 h elution, 24 h exposure. The procedure:
Indirect test: ISO 10993-5, which provides test procedures to evaluate the in vitro cytotoxicity of medical devices, was employed to test biocompatibility. The elution test was conducted by incubating the material in a sterile DMEM solution (extraction vehicle prepared as described earlier) at a ratio of 0.1 g/1.0 mL at 37 °C (following ISO 10993-12 guidelines). After 24 h of elution time, the conditioned media (eluants) were collected, and 200 µL were pipetted into a 96-well plate previously seeded with HDF cells at 80% confluence. The plate was incubated for an additional 24 h (exposure time).
Cell viability was assessed in both cases using the Alamar blue assay, as described earlier. Furthermore, immunofluorescence microscopy was utilised to examine cell-material interactions and their spread using a fluorescent dye. Specifically, HDF cells were labelled with CellTracker^TM Red CMTPX (Invitrogen, Milan, Italy) in a 75 cm^2 cell culture flask, trypsinised, and then seeded onto IL-loaded polymer substrates. The cells were then incubated for 24 h at 37 °C. […]
To assess the possibility of developing substrates for use in various biomedical applications, from drug delivery to tissue engineering or as an antimicrobial coating, the biocompatibility of ionic-liquid-loaded polymeric substrates (ILs) was also evaluated using indirect and direct cytotoxicity assays. […]

Setting [3] is: NI = no inhibition at IL maximum concentration used (1000 µM).

In the case of `CCCCCCCCCCn1cc[n+](C)c1.F[B-](F)(F)F` [C10mimBF4], the MBC – broadly, the smallest concentration meeting the test's criterion for killing – with Escherichia coli (10^6 CFU/mL) is 155 µg/mL; with Escherichia coli (setting [3]), 500 µM; in the series with Listeria monocytogenes (10^6 CFU/mL), 155 µg/mL; with Listeria monocytogenes (setting [3]) it was 500 µM; in the series with Pseudomonas fluorescens (10^6 CFU/mL) it was 155 µg/mL; in the series on Pseudomonas fluorescens (setting [3]) it was 500 µM. The minimal inhibitory concentration (MIC) (commonly the smallest concentration in the dilution series that meets the test's criterion for growth inhibition) stood at 77.5 µg/mL in the series with Escherichia coli (10^6 CFU/mL); 250 µM in the series on Escherichia coli (setting [3]); 77.5 µg/mL in the series on Listeria monocytogenes (10^6 CFU/mL); 250 µM with Listeria monocytogenes (setting [3]); 38.8 µg/mL with Pseudomonas fluorescens (10^6 CFU/mL); 125 µM with Pseudomonas fluorescens (setting [3]). In addition, the IC50 (usually the point on the concentration scale where inhibition reaches its midpoint) is 13.5 µM with HDF cells [1] (n = 3); 4.18 ± 0.03 µg/mL with HDF cells [1] (n = 3, mean ± SD); 7.39 µg/mL with MCF7 cancer cells (n = 3); 23.8 µM with MCF7 cancer cells (n = 3, mean ± SD). Moreover, in the series with HDF cells [2], the “HDF cell viability, indirect cytotoxic test” value is “good cell survival”.
